One data set concerns the target CXCR1 receptor (Homo sapiens (Human), UniProt P25024). The data set can be described thus: β-arrestin recruitment test, U2OS hCXCR1 β-arrestin cells stimulated with CXCL8. It counts as cell-based. Particulars: inhibition of CXCL8 (10 nM) induced β-arrestin 2 recruitment; *9999 signifies not active. On the procedure:
(§1) The in vitro affinity of the compounds of the present invention for the CXCR1 and CXCR2 receptors was determined on a functional test of the β-arrestin recruitment after receptor activation type.
(§2) β-Arrestin recruitment test: “PathHunter HEK293-CXCR2” or “U2OS hCXCR1 β-arrestin” cells (DiscoveRx Corporation) were seeded overnight at 10 000 cells/well (384-well format) in 20 μl of Opti MEM I medium. A preincubation with the antagonist or the vehicle for 30 min at 37° C. and 5% CO2 was followed by 60 minutes of stimulation with CXCL8 at 37° C. and 5% CO2. The cells were then placed at ambient temperature for 30 minutes. The PathHunter detection reagent (DiscoveRx Corporation) was added. […] The data were analyzed by means of a non-linear curve procedure using the XLFit4 exploitation software (IDBS) and the IC50 values were determined.
In general terms: Recruitment of arrestin is a read-out of receptor activation apart from second messengers.

The target in another data set is CXCR2 receptor (Homo sapiens (Human), UniProt P25025). Briefly: β-arrestin recruitment test, PathHunter HEK293-CXCR2 cells stimulated with CXCL8. Type of data set: cell-based. To be noted: inhibition of CXCL8 (10 nM) induced β-arrestin 2 recruitment; *9999 signifies not active. On the procedure:
as §1, §2

Data set [1] in a line: Metabolic stabilities in hepatocytes. Particulars: human hepatocytes, compound 1 μM, sampling up to 24 hours. Type of data set: in vitro ADME. On the procedure:
The human hepatocytes were supplied by Biopredic in 24-well plates.
The samples of incubation medium after addition of the test compound were taken at times t=0, 1, 2, 4, 6 and 24 hours.

The source of these data is patent publication US9388149B2, “Disubstituted 3,4-diamino-3-cyclobutene-1,2-dione compounds for use in the treatment of chemokine-mediated diseases” (GALDERMA RESEARCH & DEVELOPMENT, priority 2011, dated 2016).

Sequence of CXCR1 receptor (P25024 whole entry): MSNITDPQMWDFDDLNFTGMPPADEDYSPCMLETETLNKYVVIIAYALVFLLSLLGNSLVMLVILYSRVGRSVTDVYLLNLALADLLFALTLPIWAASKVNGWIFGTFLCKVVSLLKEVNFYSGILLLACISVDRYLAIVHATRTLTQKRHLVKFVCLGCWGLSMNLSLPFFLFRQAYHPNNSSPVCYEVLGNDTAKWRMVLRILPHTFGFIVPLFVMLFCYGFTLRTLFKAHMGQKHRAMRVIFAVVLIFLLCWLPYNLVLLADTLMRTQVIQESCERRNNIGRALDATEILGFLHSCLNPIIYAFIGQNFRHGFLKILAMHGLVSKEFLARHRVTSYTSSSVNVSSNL
Sequence of CXCR2 receptor (P25025 whole entry): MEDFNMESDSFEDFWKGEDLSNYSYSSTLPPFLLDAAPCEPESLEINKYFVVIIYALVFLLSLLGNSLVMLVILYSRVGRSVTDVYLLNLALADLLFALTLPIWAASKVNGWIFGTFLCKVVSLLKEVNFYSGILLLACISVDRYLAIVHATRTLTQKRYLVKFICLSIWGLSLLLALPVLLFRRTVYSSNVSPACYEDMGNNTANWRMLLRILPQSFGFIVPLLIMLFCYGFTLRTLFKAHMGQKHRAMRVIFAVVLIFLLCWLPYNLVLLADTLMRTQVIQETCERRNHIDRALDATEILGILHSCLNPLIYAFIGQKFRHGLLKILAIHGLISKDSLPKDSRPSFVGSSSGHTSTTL

By IC50 is commonly meant the concentration at which inhibition is half-maximal. Regarding `COC(=O)CN(C)C(=O)c1cccc(Nc2c(NC(c3ccc(C)o3)C3CCCS3)c(=O)c2=O)c1O` (single isomer, unassigned) [9 (Diastereoisomer 1), methyl {[2-hydroxy-3-(2-{[(5-methylfuran-2-yl)-(tetrahydrothiophen-2-yl)methyl]amino}-3,4-dioxocyclobut-1-enylamino)benzoyl]methylamino}acetate], the IC50 against CXCR1 receptor came to 580 nM; on CXCR2 receptor it was 153 nM.

On to `Cc1ccc(C(Nc2c(Nc3cccc(C(=O)N(C)C)c3O)c(=O)c2=O)C2(C)CCCO2)o1` (single isomer, unassigned) [Example 1 (Enantiomer 1 of diastereoisomer 2), 2-Hydroxy-N,N-dimethyl-3-(2-{[(5-methylfuran-2-yl)-(2-methyltetrahydrofuran-2-yl)methyl]amino}-3,4-dioxo-cyclobut-1-enylamino)benzamide], for which the IC50 at CXCR2 receptor turned out to be 10000 nM.

In the case of `Cc1ccc(C(Nc2c(Nc3cccc(C(=O)N(C)C)c3O)c(=O)c2=O)C2(C)CCCO2)o1` (single isomer, unassigned) [Example 1 (diastereoisomer 1), 2-hydroxy-N,N-dimethyl-3-(2-{[(5-methylfuran-2-yl)-(2-methyltetrahydrofuran-2-yl)methyl]amino}-3,4-dioxocyclobut-1-enylamino)benzamide], the IC50 on CXCR2 receptor worked out at 89 nM.

Compound `Cc1ccc(C(Nc2c(Nc3cccc(C(=O)N(C)C)c3O)c(=O)c2=O)C2CCCS2)o1` (single isomer, unassigned) [Example 2 (Enantiomer 1 of diastereoisomer 1), 2-Hydroxy-N,N-dimethyl-3-(2-{[(5-methylfuran-2-yl)-(tetrahydrothiophen-2-yl)methyl]amino}-3,4-dioxo-cyclobut-1-enylamino)benzamide] registered an IC50 at CXCR2 receptor of 273 nM. Against the preceding compound, the IC50 is about 3.1-fold higher.

On to `Cc1ccc(C(Nc2c(Nc3cccc(C(=O)N(C)C)c3O)c(=O)c2=O)C2CCCS2)o1` (single isomer, unassigned) [Example 2 (Enantiomer 1 of diastereoisomer 2), 2-Hydroxy-N,N-dimethyl-3-(2-{[(5-methylfuran-2-yl)-(tetrahydrothiophen-2-yl)methyl]amino}-3,4-dioxo-cyclobut-1-enylamino)benzamide], for which the “Half-life time” value in data set [1] worked out at 3.55 h. The IC50 against CXCR2 receptor worked out at 15 nM.

With `Cc1ccc(C(Nc2c(Nc3cccc(C(=O)N(C)C)c3O)c(=O)c2=O)C2CCCS2)o1` (single isomer, unassigned) [Example 2 (Enantiomer 2 of diastereoisomer 1), 2-Hydroxy-N,N-dimethyl-3-(2-{[(5-methylfuran-2-yl)-(tetrahydrothiophen-2-yl)methyl]amino}-3,4-dioxo-cyclobut-1-enylamino)benzamide], on CXCR2 receptor, the IC50 stood at 56 nM.

For `Cc1ccc(C(Nc2c(Nc3cccc(C(=O)N(C)C)c3O)c(=O)c2=O)C2CCCS2)o1` (single isomer, unassigned) [Example 2 (Enantiomer 2 of diastereoisomer 2), 2-Hydroxy-N,N-dimethyl-3-(2-{[(5-methylfuran-2-yl)-(tetrahydrothiophen-2-yl)methyl]amino}-3,4-dioxo-cyclobut-1-enylamino)benzamide], the “Half-life time” value in data set [1] amounted to 3.82 h. At CXCR2 receptor, this compound yielded an IC50 of 134 nM.

For the compound `Cc1ccc(C(Nc2c(Nc3cccc(C(=O)N(C)CC(F)(F)F)c3O)c(=O)c2=O)C2CCCS2)o1` (single isomer, unassigned) [Example 8 (Diastereoisomer 1)], the IC50 against CXCR1 receptor was found to be 508 nM; at CXCR2 receptor, 115 nM.

Consider `Cc1ccc(C(Nc2c(Nc3cccc(C(=O)N(C)CC(F)(F)F)c3O)c(=O)c2=O)C2CCCS2)o1` (single isomer, unassigned) [Example 8 (Diastereoisomer 2)], for which the IC50 turned out to be 85 nM at CXCR1 receptor and 47 nM at CXCR2 receptor.

Take `COC(=O)CN(C)C(=O)c1cccc(Nc2c(NC(c3ccc(C)o3)C3CCCS3)c(=O)c2=O)c1O` (single isomer, unassigned) [Example 9 (Diastereoisomer 2), methyl {[2-hydroxy-3-(2-{[(5-methylfuran-2-yl)-(tetrahydrothiophen-2-yl)methyl]amino}-3,4-dioxocyclobut-1-enylamino)benzoyl]methylamino}acetate]: the IC50 was 89 nM on CXCR1 receptor and 80 nM against CXCR2 receptor.

Consider `Cc1ccc(C(Nc2c(Nc3cccc(C(=O)N(C)C)c3O)c(=O)c2=O)[C@@H]2COC(C)(C)O2)o1` (single isomer, unassigned) [Example 14 (Diastereoisomer 1)], for which the 50% inhibitory concentration (IC50) against CXCR1 receptor and at CXCR2 receptor was 10000 nM throughout.

Regarding `Cc1ccc(C(Nc2c(Nc3cccc(C(=O)N(C)C)c3O)c(=O)c2=O)[C@@H]2COC(C)(C)O2)o1` (single isomer, unassigned) [Example 14 (Diastereoisomer 2)], the results for the IC50 against CXCR1 receptor and against CXCR2 receptor were 10000 nM and 1250 nM, respectively.

Turning to `Cc1ccc(C(Nc2c(Nc3cccc(C(=O)N(C)C)c3O)c(=O)c2=O)[C@H]2CCCO2)o1` (stereo in doubt) [Example 11, 2-hydroxy-N,N-dimethyl-3-(2-{[(R)-(5-methylfuran-2-yl)tetrahydrofuran-2-ylmethyl]amino}-3,4-dioxocyclobut-1-enylamino)benzamide], the IC50 against CXCR1 receptor stood at 1320 nM; against CXCR2 receptor, 176 nM.

In the case of `Cc1ccc(C(Nc2c(Nc3cccc(C(=O)N(C)C)c3O)c(=O)c2=O)[C@@H]2CCCO2)o1` (stereo in doubt) [Example 12, 2-hydroxy-N,N-dimethyl-3-(2-{[(S)-(5-methylfuran-2-yl)tetrahydrofuran-2-ylmethyl]amino}-3,4-dioxocyclobut-1-enylamino)benzamide], the 50% inhibitory concentration (IC50) stood at 483 nM against CXCR1 receptor and 83 nM against CXCR2 receptor.

Take `Cc1ccc(C(Nc2c(Nc3cccc(C(=O)N4CCC[C@H]4C(=O)OC(C)C)c3F)c(=O)c2=O)C2CCCS2)o1` (stereo partly drawn) [Example 4, Isopropyl (S)-1-[2-fluoro-3-(2-{[(5-methylfuran-2-yl)-(tetrahydrothiophen-2-yl)methyl]amino}-3,4-dioxocyclobut-1-enylamino)benzoyl]pyrrolidine-2-carboxylate]: the 50% inhibitory concentration (IC50) on CXCR1 receptor turned out to be 1890 nM; on CXCR2 receptor, 109 nM.

Turning to `CCOC(=O)[C@@H]1CCCN1C(=O)c1cccc(Nc2c(NC(c3ccc(C)o3)C3CCCS3)c(=O)c2=O)c1F` (stereo partly drawn) [Example 5, Ethyl (S)-1-[2-fluoro-3-(2-{[(5-methylfuran-2-yl)-(tetrahydrothiophen-2-yl)methyl]amino}-3,4-dioxocyclobut-1-enylamino)benzoyl]pyrrolidine-2-carboxylate], the IC50 stood at 711 nM at CXCR1 receptor and 106 nM against CXCR2 receptor.

For the compound `CN(C)C(=O)c1cccc(Nc2c(NC(c3ccccc3)C3CCCO3)c(=O)c2=O)c1O` (centres unmarked) [Example 13, 3-(3,4-dioxo-2-{[phenyl(tetrahydrofuran-2-yl)methyl]amino}cyclobut-1-enylamino)-2-hydroxy-N,N-dimethylbenzamide], the IC50 on CXCR1 receptor is 1150 nM; on CXCR2 receptor it was 170 nM.

As to `Cc1ccc(C(Nc2c(Nc3cccn(C)c3=O)c(=O)c2=O)C2CCCS2)o1` (centres unmarked) [Example 17, 3-{[(5-methylfuran-2-yl)-(tetrahydrothiophen-2-yl)methyl]amino}-4-(1-methyl-2-oxo-1,2-dihydropyridin-3-ylamino)cyclobut-3-ene-1,2-dione], the IC50 is 384 nM against CXCR1 receptor and 44 nM on CXCR2 receptor.
